Measurements reported in patent US20230158071A1, “TUMOR COMBINED IMMUNOTHERAPY” (CRAGE medical Co., Limited, priority 2018, published 2023).

Experiments:
[1] = system: E0771-EGFRvIII orthotopic breast cancer xenografts; assay: Mouse E0771-EGFRvIII orthotopic breast cancer xenografts, olaparib and CAR-T; assay type: in vivo, C57BL/6 mice; conditions: olaparib 50 mg/kg i.p. with CAR-T cells
Experimental: (1) Establishment of mouse orthotopic breast cancer model and respective treatment in groups:
E0771-EGFRvIII cells in the logarithmic growth phase and growing well are collected, inoculating 5×10^5 target cells at right side position of the third pair of accessory breasts of C57BL/6 mice (mice with normal immune system), and the inoculating day is recorded as the first day (i.e., Day 1).
On the 10th day after tumor inoculation (i.e. Day 10), mouse T cells are taken and 806-mCD28z-CAR-T cell line is constructed as described in step 1 of this example.
On the 14th day after tumor inoculation (i.e., Day 14), the volume of the tumor reaches about 150 mm^3, and the mice are divided in groups:
The formula of olaparib stock solution: olaparib is added with 4% DMSO+30% PEG300+66% ddH2O in sequence; a solution of 5 mg/mL is used as the stock solution. […]
(2) Detection of tumor volume. The tumor volume changes of mice are observed and measured continuously, and recorded three times a week. […]
(4) Detection of CAR-T copy number in tumor tissues. Tumor tissues of each group of mice are ground to extract DNA, and the sequence of retroviral vector fragment is detected by Taqman probe method to determine the DNA copy number of 806-mCD28z-CAR. […]

E0771-EGFRvIII cells = assay: CCK8 proliferation assay, olaparib on E0771-EGFRvIII breast cancer cells; assay type: cell-based, mouse
Description: Since the EGFR287-302 epitope is only exposed in EGFRvIII or tumors overexpressing EGFR, this epitope is hidden in normal tissues (Gan H K et al., Targeting of a conformationally exposed, tumor-specific epitope of EGFR as a strategy for cancer therapy. Cancer Res. 2012, 72(12):2924-2930), conventional methods in molecular biology are used to establish E0771, 4T1 mouse breast cancer cell models (E0771-EGFRvIII, 4T1-EGFRvIII) that overexpress mouse EGFR inserted with amino acid epitope at positions 287-302 of human EGFR. Subsequent research is performed to screen EGFRvIII target-positive cells by cell flow cytometry (FIG. 2A). E0771, 4T1 cells are purchased from the American Type Culture Collection (ATCC).
As an effective inhibitor of PARP1, olaparib may inhibit PARP1 to participate in DNA damage repair process. In mouse breast cancer cell lines and mouse T cells and CART cells, different levels of PARP1 expression are detected (FIG. 2B). Therefore, CCK8 proliferation assay is required to detect the effect of olaparib on proliferation of tumor cells and CART cells.
806-m28Z CAR-T cells in Example 1 are taken to spread in a 96-well plate with 1×10^4 cells per well and 100 μl medium. Breast cancer cells E0771-EGFRvIII and 4T1-EGFRvIII are taken to spread in a 96-well plate with 1×10^4 cells per well and 100 μl medium. Different concentrations of olaparib are taken to add to the cells to make 10 concentration gradients (i.e., the treatment concentrations of olaparib are respectively 50 μM, 20 μM, 10 μM, 5 μM, 2.5 μM, 1 μM, 0.1 μM, 0.01 μM, 0.001 μM, 0 μg/ml). After 48 hours of drug treatment for cells of different groups, 10 μl of CCK8 substrate color reagent (Dojindo) is added to each well; after incubating for 1 hour at 37° C., the absorbance at 450 nm is measured by a microplate reader, calculating the cell viability respectively.
The formula for calculating the cell viability is as follows:
Cell viability (%)=[A (adding drug)−A (blank)]/[A (without adding drug)−A (blank)]

Question: Which “toxicity of combining olaparib with CAR-T cell therapy (from body weights)” value [1] does the source give for `O=C(c1cc(Cc2n[nH]c(=O)c3ccccc23)ccc1F)N1CCN(C(=O)C2CC2)CC1` [olaparib] here?
Answer: do not cause significant toxicity

Question: And the “inhibition rate of proliferation of E0771-EGFRVIII cell line” value (E0771-EGFRvIII cells; 1 μM and higher concentration of olaparib, 48 hours, CCK8)?
Answer: 65%-90%

Question: What about the “proliferation of E0771-EGFRVIII cells” value (E0771-EGFRvIII cells; 1 μM olaparib) of the same compound?
Answer: inhibited

Question: And the “concentration that may inhibit the growth of tumor cells” value (E0771-EGFRvIII cells; in vitro, tumor cells not specified further)?
Answer: higher than 104

Question: What about the “proliferation of E0771-EGFRVIIII cells” value (E0771-EGFRvIII cells; olaparib) of the same compound?
Answer: inhibited
